Measurements taken from ChEMBL document CHEMBL5365420, “Kinetics, Thermodynamics, and Structural Effects of Quinoline-2-Carboxylates, Zinc-Binding Inhibitors of New Delhi Metallo-β-lactamase-1 Re-sensitizing Multidrug-Resistant Bacteria for Carbapenems” (J Med Chem, 2023).

Legend:
Acinetobacter baumannii [1] = test: Antibacterial activity against clinical isolate Acinetobacter baumannii IC 19/09 expressing blaNDM-1 co-expressing blaOXA-64 assessed as meropenem MIC at 29.60 uM measured after 20 hrs by broth microdilution assay (reference value: 12 mg/L); assay type: functional; details: dose 29.6 µM
[2] = target: T1, 72 kDa type IV collagenase (Homo sapiens, UniProt P08253); test: Binding affinity to human recombinant MMP-2 CD assessed as inhibition constant using OMNIMMP as substrate incubated for 30 mins by fluorescence based analysis
Target sequence in this assay (P08253 whole entry): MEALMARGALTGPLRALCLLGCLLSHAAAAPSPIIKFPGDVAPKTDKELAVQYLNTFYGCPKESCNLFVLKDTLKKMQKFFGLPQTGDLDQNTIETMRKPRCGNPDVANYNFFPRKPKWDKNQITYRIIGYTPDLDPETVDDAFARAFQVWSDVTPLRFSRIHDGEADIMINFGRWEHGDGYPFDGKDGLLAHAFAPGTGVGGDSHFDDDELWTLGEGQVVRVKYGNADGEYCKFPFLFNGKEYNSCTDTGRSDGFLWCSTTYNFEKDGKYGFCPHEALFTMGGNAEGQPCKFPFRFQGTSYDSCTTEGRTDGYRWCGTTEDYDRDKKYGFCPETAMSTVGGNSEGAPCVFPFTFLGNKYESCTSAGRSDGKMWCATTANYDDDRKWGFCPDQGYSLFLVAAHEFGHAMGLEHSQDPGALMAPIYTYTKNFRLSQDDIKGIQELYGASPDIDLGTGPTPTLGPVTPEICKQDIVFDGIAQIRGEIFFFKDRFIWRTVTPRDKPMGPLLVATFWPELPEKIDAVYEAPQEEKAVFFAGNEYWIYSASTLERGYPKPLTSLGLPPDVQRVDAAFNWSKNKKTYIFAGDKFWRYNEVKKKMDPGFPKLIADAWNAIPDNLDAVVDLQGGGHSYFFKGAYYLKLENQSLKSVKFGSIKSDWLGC

Escherichia coli [3] = test: Antibacterial activity against clinical isolate Escherichia coli K12 J53-ST10 618/15 expressing blaNDM-1 assessed as meropenem MIC at 29.60 uM measured after 20 hrs by broth microdilution assay (reference value: 12 mg/L); assay type: functional; details: dose 29.6 µM
Escherichia coli [4] = test: Antibacterial activity against clinical isolate Escherichia coli K12 J53-ST10 699/15 expressing blaNDM-1 assessed as meropenem MIC at 59.20 uM measured after 20 hrs by broth microdilution assay (reference value: 24 mg/L); assay type: functional; details: dose 59.2 µM
Klebsiella pneumoniae [5] = test: Antibacterial activity against clinical isolate Klebsiella pneumoniae 50/11 expressing blaNDM-1 co-expressing blaTEM-1/blaSHV-28/blaTEM-1/blaCTX-M-15 and blaOXA-1 assessed as meropenem MIC at 59.20 uM measured after 20 hrs by broth microdilution assay (reference value: 24 mg/L); assay type: functional; details: dose 59.2 µM
[6] = target: Histone deacetylase 1 (Homo sapiens) (UniProt Q13547); test: Inhibition of C-terminal 6His/FLAG-tagged human recombinant full-length HDAC1 (1 to 482(end) residues) at 10 uM using Boc-Lys-(Ac)-AMC as substrate incubated for 10 mins followed by substrate addition measured after 1 hr by fluorescence based analysis relative to control; details: time 70.0 min
Chain of Histone deacetylase 1 (Homo sapiens) (Q13547 whole entry): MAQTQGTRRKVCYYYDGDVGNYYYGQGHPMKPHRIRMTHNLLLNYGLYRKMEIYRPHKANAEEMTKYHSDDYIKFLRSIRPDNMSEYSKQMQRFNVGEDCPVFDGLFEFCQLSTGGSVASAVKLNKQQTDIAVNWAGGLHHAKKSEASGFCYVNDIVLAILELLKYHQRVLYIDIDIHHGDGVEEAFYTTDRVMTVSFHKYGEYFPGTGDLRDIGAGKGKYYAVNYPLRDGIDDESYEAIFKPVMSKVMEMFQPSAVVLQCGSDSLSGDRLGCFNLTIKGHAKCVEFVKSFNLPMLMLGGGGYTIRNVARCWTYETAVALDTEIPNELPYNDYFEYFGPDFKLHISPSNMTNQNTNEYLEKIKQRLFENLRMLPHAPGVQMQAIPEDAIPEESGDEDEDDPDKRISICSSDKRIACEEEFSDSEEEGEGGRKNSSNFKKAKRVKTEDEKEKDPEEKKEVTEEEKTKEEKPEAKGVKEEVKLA

[7] = Inhibition of IMP-1 (unknown origin) expressed in Escherichia coli BL21-DE3 incubated for 15 mins by absorbance based microplate reader analysis; set-up: species or system Bacteria
Escherichia coli [8] = test: Antibacterial activity against clinical isolate Escherichia coli K12 J53-ST10 696/17 expressing blaNDM-1 co-expressing blaCMY-4 assessed as meropenem MIC at 59.20 uM measured after 20 hrs by broth microdilution assay (reference value: 24 mg/L); assay type: functional; details: dose 59.2 µM
Klebsiella pneumoniae [9] = test: Antibacterial activity against clinical isolate Klebsiella pneumoniae ST23213/19 expressing blaNDM-1 co-expressing blaOXA-48/blaSHV-11/blaCTX-M-15 and blaOXA-1 assessed as meropenem MIC at 29.60 uM measured after 20 hrs by broth microdilution assay (reference value: 12 mg/L); assay type: functional; details: dose 29.6 µM
Klebsiella pneumoniae [10] = test: Antibacterial activity against clinical isolate Klebsiella pneumoniae ST23213/19 expressing blaNDM-1 co-expressing blaOXA-48/blaSHV-11/blaCTX-M-15 and blaOXA-1 assessed as meropenem MIC at 59.20 uM measured after 20 hrs by broth microdilution assay (reference value: 24 mg/L); assay type: functional; details: dose 59.2 µM
Escherichia coli [11] = test: Antibacterial activity against clinical isolate Escherichia coli K12 J53-ST10 684/18 expressing blaNDM-1 co-expressing blaCMY-2 and blaOXA-10 assessed as meropenem MIC at 29.60 uM measured after 20 hrs by broth microdilution assay (reference value: 12 mg/L); assay type: functional; details: dose 29.6 µM
Acinetobacter baumannii [12] = test: Antibacterial activity against clinical isolate Acinetobacter baumannii IC 19/09 expressing blaNDM-1 co-expressing blaOXA-64 assessed as meropenem MIC at 59.20 uM measured after 20 hrs by broth microdilution assay (reference value: 24 mg/L); assay type: functional; details: dose 59.2 µM
Klebsiella pneumoniae [13] = test: Antibacterial activity against clinical isolate Klebsiella pneumoniae 50/11 expressing blaNDM-1 co-expressing blaTEM-1/blaSHV-28/blaTEM-1/blaCTX-M-15 and blaOXA-1 assessed as meropenem MIC at 29.60 uM measured after 20 hrs by broth microdilution assay (reference value: 12 mg/L); assay type: functional; details: dose 29.6 µM
Klebsiella pneumoniae [14] = test: Antibacterial activity against clinical isolate Klebsiella pneumoniae ST1493/10 expressing blaNDM-1 co-expressing blaCMY-2like/blaTEM-1/blaCTX-M-15/blaSHV-28/blaOXA-1 and blaOXA-9 assessed as meropenem MIC at 59.20 uM measured after 20 hrs by broth microdilution assay (reference value: 24 mg/L); assay type: functional; details: dose 59.2 µM
Klebsiella pneumoniae [15] = test: Antibacterial activity against clinical isolate Klebsiella pneumoniae 50/20 expressing blaNDM-5 co-expressing blaTEM-1 and blaSHV-1 assessed as meropenem MIC at 29.60 uM measured after 20 hrs by broth microdilution assay (reference value: 12 mg/L); assay type: functional; details: dose 29.6 µM
Escherichia coli [16] = test: Antibacterial activity against clinical isolate Escherichia coli K12 J53-ST10 699/15 expressing blaNDM-1 assessed as meropenem MIC at 29.60 uM measured after 20 hrs by broth microdilution assay (reference value: 12 mg/L); assay type: functional; details: dose 29.6 µM
Klebsiella pneumoniae [17] = test: Antibacterial activity against clinical isolate Klebsiella pneumoniae 62/07 expressing blaVIM-19 co-expressing blaSHV-1/blaCTX-M-14 and blaCMY-4 assessed as meropenem MIC at 59.20 uM measured after 20 hrs by broth microdilution assay (reference value: 24 mg/L); assay type: functional; details: dose 59.2 µM
[18] = target: T1, 72 kDa type IV collagenase; test: Inhibition of human recombinant MMP-2 CD at 10 uM using OMNIMMP as substrate incubated for 30 mins by fluorescence based analysis relative to control
Target sequence in this assay (P08253 110-660 limits assumed): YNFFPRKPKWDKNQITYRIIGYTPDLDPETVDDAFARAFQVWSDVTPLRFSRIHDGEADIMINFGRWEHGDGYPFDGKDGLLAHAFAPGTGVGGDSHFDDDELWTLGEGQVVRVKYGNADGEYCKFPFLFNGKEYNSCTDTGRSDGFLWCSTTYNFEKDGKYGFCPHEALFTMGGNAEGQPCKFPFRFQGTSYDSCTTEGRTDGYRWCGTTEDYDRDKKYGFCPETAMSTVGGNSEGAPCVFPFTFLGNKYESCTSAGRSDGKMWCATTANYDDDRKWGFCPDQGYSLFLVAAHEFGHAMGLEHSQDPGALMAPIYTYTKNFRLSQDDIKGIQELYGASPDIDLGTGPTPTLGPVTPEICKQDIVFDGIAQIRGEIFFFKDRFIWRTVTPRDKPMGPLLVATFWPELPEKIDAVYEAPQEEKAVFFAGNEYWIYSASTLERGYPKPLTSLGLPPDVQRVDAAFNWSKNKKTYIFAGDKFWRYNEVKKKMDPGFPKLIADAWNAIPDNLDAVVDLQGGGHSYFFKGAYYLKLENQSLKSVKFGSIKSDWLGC

Klebsiella pneumoniae [19] = test: Antibacterial activity against clinical isolate Klebsiella pneumoniae ST1493/10 expressing blaNDM-1 co-expressing blaCMY-2like/blaTEM-1/blaCTX-M-15/blaSHV-28/blaOXA-1 and blaOXA-9 assessed as meropenem MIC at 29.60 uM measured after 20 hrs by broth microdilution assay (reference value: 12 mg/L); assay type: functional; details: dose 29.6 µM
Escherichia coli [20] = test: Antibacterial activity against clinical isolate Escherichia coli 371/12 expressing blaNDM-7 co-expressing blaCTX-M-15 and blaOXA-1 assessed as meropenem MIC at 59.20 uM measured after 20 hrs by broth microdilution assay (reference value: 24 mg/L); assay type: functional; details: dose 59.2 µM
[21] = target: Carbonic anhydrase 2 (Homo sapiens) (UniProt P00918); test: Inhibition of human CA2 at 10 uM using pNPA as substrate preincubated for 15 mins followed by substrate by absorbance based analysis relative to control
Escherichia coli [22] = test: Antibacterial activity against clinical isolate Escherichia coli 371/12 expressing blaNDM-7 co-expressing blaCTX-M-15 and blaOXA-1 assessed as meropenem MIC at 29.60 uM measured after 20 hrs by broth microdilution assay (reference value: 12 mg/L); assay type: functional; details: dose 29.6 µM
Escherichia coli [23] = test: Antibacterial activity against clinical isolate Escherichia coli ST1012/10 expressing blaNDM-1 co-expressing blaTEM-1/blaCTX-M-15/blaOXA-1 and blaOXA-2 assessed as meropenem MIC at 29.60 uM measured after 20 hrs by broth microdilution assay (reference value: 12 mg/L); assay type: functional; details: dose 29.6 µM
Klebsiella pneumoniae [24] = test: Antibacterial activity against clinical isolate Klebsiella pneumoniae 62/07 expressing blaVIM-19 co-expressing blaSHV-1/blaCTX-M-14 and blaCMY-4 assessed as meropenem MIC at 29.60 uM measured after 20 hrs by broth microdilution assay (reference value: 12 mg/L); assay type: functional; details: dose 29.6 µM
Escherichia coli [25] = test: Antibacterial activity against clinical isolate Escherichia coli ST1012/10 expressing blaNDM-1 co-expressing blaTEM-1/blaCTX-M-15/blaOXA-1 and blaOXA-2 assessed as meropenem MIC at 59.20 uM measured after 20 hrs by broth microdilution assay (reference value: 24 mg/L); assay type: functional; details: dose 59.2 µM
[26] = Inhibition of VIM-2 (unknown origin) incubated for 15 mins by absorbance based microplate reader analysis; set-up: species or system Bacteria
Escherichia coli [27] = test: Antibacterial activity against clinical isolate Escherichia coli K12 J53-ST10 696/17 expressing blaNDM-1 co-expressing blaCMY-4 assessed as meropenem MIC at 29.60 uM measured after 20 hrs by broth microdilution assay (reference value: 12 mg/L); assay type: functional; details: dose 29.6 µM
Klebsiella pneumoniae [28] = test: Antibacterial activity against clinical isolate Klebsiella pneumoniae 50/20 expressing blaNDM-5 co-expressing blaTEM-1 and blaSHV-1 assessed as meropenem MIC at 59.20 uM measured after 20 hrs by broth microdilution assay (reference value: 24 mg/L); assay type: functional; details: dose 59.2 µM
Escherichia coli [29] = test: Antibacterial activity against clinical isolate Escherichia coli K12 J53-ST10 618/15 expressing blaNDM-1 assessed as meropenem MIC at 59.20 uM measured after 20 hrs by broth microdilution assay (reference value: 24 mg/L); assay type: functional; details: dose 59.2 µM
Escherichia coli [30] = test: Antibacterial activity against clinical isolate Escherichia coli K12 J53-ST10 684/18 expressing blaNDM-1 co-expressing blaCMY-2 and blaOXA-10 assessed as meropenem MIC at 59.20 uM measured after 20 hrs by broth microdilution assay (reference value: 24 mg/L); assay type: functional; details: dose 59.2 µM
[31] = Inhibition of GIM1 (unknown origin) incubated for 15 mins by absorbance based microplate reader analysis; set-up: species or system Bacteria

MIC (Acinetobacter baumannii [1])	Ki [2]	MIC (Escherichia coli [3])	MIC (Escherichia coli [4])	MIC (Klebsiella pneumoniae [5])	inhibition [6]	IC50 [7]	MIC (Escherichia coli [8])	MIC (Klebsiella pneumoniae [9])	MIC (Klebsiella pneumoniae [10])	MIC (Escherichia coli [11])	MIC (Acinetobacter baumannii [12])	MIC (Klebsiella pneumoniae [13])	MIC (Klebsiella pneumoniae [14])	MIC (Klebsiella pneumoniae [15])	MIC (Escherichia coli [16])	MIC (Klebsiella pneumoniae [17])	inhibition [18]	MIC (Klebsiella pneumoniae [19])	MIC (Escherichia coli [20])	other results	SMILES
8 µg/mL	6.92 µM	≤ 0.125 µg/mL	≤ 0.125 µg/mL	≤ 0.125 µg/mL	< 5%	250 nM	≤ 0.125 µg/mL	32 µg/mL	16 µg/mL	0.25 µg/mL	1 µg/mL	0.5 µg/mL	1 µg/mL	2 µg/mL	1 µg/mL	0.5 µg/mL	> 90%	4 µg/mL	≤ 0.125 µg/mL	inhibition [21]: < 5%; MIC (Escherichia coli [22]): 32 µg/mL; MIC (Escherichia coli [23]): 1 µg/mL; MIC (Klebsiella pneumoniae [24]): 8 µg/mL; MIC (Escherichia coli [25]): ≤ 0.125 µg/mL; IC50 [26]: 610 nM; MIC (Escherichia coli [27]): ≤ 0.125 µg/mL; MIC (Klebsiella pneumoniae [28]): ≤ 0.125 µg/mL; MIC (Escherichia coli [29]): ≤ 0.125 µg/mL; MIC (Escherichia coli [30]): ≤ 0.125 µg/mL	O=C(O)c1cc(-c2ccccc2)c2cccc(NS(=O)(=O)c3ccccn3)c2n1
16 µg/mL	7.75 µM	≤ 0.125 µg/mL	≤ 0.125 µg/mL	0.25 µg/mL	< 5%	690 nM	≤ 0.125 µg/mL	16 µg/mL	16 µg/mL	0.5 µg/mL	1 µg/mL	0.5 µg/mL	1 µg/mL	2 µg/mL	1 µg/mL	0.25 µg/mL	> 90%	4 µg/mL	≤ 0.125 µg/mL	inhibition [21]: < 5%; MIC (Escherichia coli [22]): 32 µg/mL; MIC (Escherichia coli [23]): 0.5 µg/mL; MIC (Klebsiella pneumoniae [24]): 8 µg/mL; MIC (Escherichia coli [25]): ≤ 0.125 µg/mL; IC50 [26]: 400 nM; IC50 [31]: 650 nM; MIC (Escherichia coli [27]): 0.25 µg/mL; MIC (Klebsiella pneumoniae [28]): ≤ 0.125 µg/mL; MIC (Escherichia coli [29]): ≤ 0.125 µg/mL; MIC (Escherichia coli [30]): ≤ 0.125 µg/mL	O=C(O)c1ccc2c(-c3ccccc3)ccc(NS(=O)(=O)c3ccccn3)c2n1
